Data published in patent EP3952873B1 (priority 2019, dated 2020).
“Also recorded” adds a separate entry of the source.

How the values were obtained:
GABAB(1b,2) receptors = target: T1, GABAB(1b,2) receptors (Homo sapiens, UniProt Q9UBS5); test: GABAB functional assay in CHO cells; type: cell-based; details: CHO cells stably expressing GABAB(1b,2), concentrations up to 300 µM
T1 construct: expressed in transfected cells
Description: To assess affinity of JON-11 for the GABAB receptor, we employed a GABAB binding assay using rat brain synaptic membranes (Wellendorph et al., 2005). […] B) JON-11 was further assessed for functional activity using CHO cells stably expressing GABAB(1b,2) receptors (Rajalu et al., 2015).

mice = type: in vivo; details: 100 mg/kg i.p.
Experimental: To determine locomotor effects (e.g. sedation or hyperactivity) compounds were assessed after systemic administration to mice. Mice (typically n=5-8) were administered selected compounds, e.g. JON-11 and pro-JON-11 and vehicle controls, and placed in transparent cages (L: 37 cm x W: 21 cm x H: 15 cm). Locomotor activity were measured via a camera mounted above the arena. Mice will be recorded for 45 min and data collected in 5-min intervals. Data will be stored on a computer equipped with Ethovision XT (Noldus).

in vivo = test: in vivo; set-up: species or system mice; details: male, C57BL/6JRj, mouse, ip, 10 mg/kg
Experimental: To evaluate the ability of pro-JON-11 (10) and JON-11 to penetrate the blood-brain barrier, a brain-to-plasma distribution ratio (B/P ratio) was obtained. All subjects were male C57BL/6JRj mice (24-26 g, Janvier Labs, France) housed in groups of three-four with ad libitum access to food and water. The mice were maintained under diurnal conditions (12-h light/dark cycle with lights on at 7 AM) in a temperature (22±1 °C) and humidity-controlled room (50±10%). Ethical permission for the procedures used in this in vivo study was granted by the Danish Animal Experiments Inspectorate.
Compounds were dissolved in PEG-400 (Sigma) at 20% of the final required volume. The final volume was then made up by 10% (w/v) hydroxypropyl-beta-cyclodextrin (Sigma Aldrich) in sterile saline. The solution was sonicated for 5 min. The JON-11 solution was pH-adjusted to 7.4 with 0.2% 2M NaOH.
Both compounds were injected i.p. at a dose of 10 mg/kg (n=3 for each compound). […] After 30 min, the animals were sacrificed by decapitation, trunk blood was collected in EDTA-coated tubes and the brain was gently removed. Blood and tissues were temporarily stored on ice until plasma and brain homogenate preparation. Blood plasma was separated from cells by centrifugation for 10 min at 1,500 x g at 4 °C and plasma harvested. […]
Plasma and brain exposure of JON-11 and pro-JON-11 were evaluated in male mice. […]

GABAA receptors = test: Affinity for GABAA receptors; type: binding
[1] = target: T2, GHB high-affinity binding site/CaMK2a (Rattus norvegicus, UniProt P11275); test: Rat brain membrane [3H]NCS-382 binding assay; details: 16 nM [3H]NCS-382, rat cortical synaptic membranes, pH 6.0, 0-4 °C
T2 construct: rat (Sprague-Dawley) cortical synaptic membranes (P2 synaptosomes) were prepared; from tissue; host or cells: rat (Sprague-Dawley) cortical synaptic membranes (P2 synaptosomes)
Experimental: According to previously published protocols, rat (Sprague-Dawley) cortical synaptic membranes (P2 synaptosomes) were prepared and stored at -20 °C until the day of assay (Wellendorph et al., 2005). Membranes were then washed three times with binding buffer (50 mM potassium phosphate buffer pH 6.0). The binding protocol was performed in 96-well microplates. In brief, compounds were incubated with 16 nM [^3H]NCS-382 radioligand and membranes for 60 min at 0-4 °C, filtered through GF/C filter plates (PerkinElmer) using a 96-well harvester (Packard), rapidly washed three times with ice-cold binding buffer, and filter plates dried. CPM values were determined using liquid scintillation counting in a TopCount NXT Microplate Scintillation & Luminescence Counter (PerkinElmer). Curves were generated using non-linear regression (GraphPad Prism 7, GraphPad Prism Software, San Diego, CA, USA).
JON-11, related analogues, and pro-JON-11(10) were tested in the [^3H]NCS-382 binding assay (Wellendorph et al., 2005).

T1 sequence (Q9UBS5 1-844 isoform Q9UBS5-2): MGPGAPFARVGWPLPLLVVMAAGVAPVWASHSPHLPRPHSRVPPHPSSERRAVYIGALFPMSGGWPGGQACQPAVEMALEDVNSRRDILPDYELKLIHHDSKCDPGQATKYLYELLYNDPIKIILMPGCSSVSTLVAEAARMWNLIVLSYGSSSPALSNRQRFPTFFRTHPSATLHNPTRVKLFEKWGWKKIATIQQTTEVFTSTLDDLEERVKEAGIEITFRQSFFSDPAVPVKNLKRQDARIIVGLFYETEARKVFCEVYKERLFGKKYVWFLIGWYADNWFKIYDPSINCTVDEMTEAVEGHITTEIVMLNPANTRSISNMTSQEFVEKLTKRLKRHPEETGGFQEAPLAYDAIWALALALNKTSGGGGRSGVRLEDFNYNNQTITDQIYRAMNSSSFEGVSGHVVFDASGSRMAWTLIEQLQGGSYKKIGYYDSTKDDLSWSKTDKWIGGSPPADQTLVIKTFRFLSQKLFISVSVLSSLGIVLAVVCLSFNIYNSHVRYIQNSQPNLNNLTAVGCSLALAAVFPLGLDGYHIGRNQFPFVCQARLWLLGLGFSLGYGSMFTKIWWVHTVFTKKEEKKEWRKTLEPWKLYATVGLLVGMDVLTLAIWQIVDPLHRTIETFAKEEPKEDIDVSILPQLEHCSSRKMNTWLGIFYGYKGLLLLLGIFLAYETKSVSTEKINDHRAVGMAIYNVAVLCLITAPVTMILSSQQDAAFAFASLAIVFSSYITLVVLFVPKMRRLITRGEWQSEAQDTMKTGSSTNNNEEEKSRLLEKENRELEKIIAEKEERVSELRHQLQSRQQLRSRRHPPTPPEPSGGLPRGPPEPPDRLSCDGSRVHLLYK
T1 sequence (O75899 42-941 partner): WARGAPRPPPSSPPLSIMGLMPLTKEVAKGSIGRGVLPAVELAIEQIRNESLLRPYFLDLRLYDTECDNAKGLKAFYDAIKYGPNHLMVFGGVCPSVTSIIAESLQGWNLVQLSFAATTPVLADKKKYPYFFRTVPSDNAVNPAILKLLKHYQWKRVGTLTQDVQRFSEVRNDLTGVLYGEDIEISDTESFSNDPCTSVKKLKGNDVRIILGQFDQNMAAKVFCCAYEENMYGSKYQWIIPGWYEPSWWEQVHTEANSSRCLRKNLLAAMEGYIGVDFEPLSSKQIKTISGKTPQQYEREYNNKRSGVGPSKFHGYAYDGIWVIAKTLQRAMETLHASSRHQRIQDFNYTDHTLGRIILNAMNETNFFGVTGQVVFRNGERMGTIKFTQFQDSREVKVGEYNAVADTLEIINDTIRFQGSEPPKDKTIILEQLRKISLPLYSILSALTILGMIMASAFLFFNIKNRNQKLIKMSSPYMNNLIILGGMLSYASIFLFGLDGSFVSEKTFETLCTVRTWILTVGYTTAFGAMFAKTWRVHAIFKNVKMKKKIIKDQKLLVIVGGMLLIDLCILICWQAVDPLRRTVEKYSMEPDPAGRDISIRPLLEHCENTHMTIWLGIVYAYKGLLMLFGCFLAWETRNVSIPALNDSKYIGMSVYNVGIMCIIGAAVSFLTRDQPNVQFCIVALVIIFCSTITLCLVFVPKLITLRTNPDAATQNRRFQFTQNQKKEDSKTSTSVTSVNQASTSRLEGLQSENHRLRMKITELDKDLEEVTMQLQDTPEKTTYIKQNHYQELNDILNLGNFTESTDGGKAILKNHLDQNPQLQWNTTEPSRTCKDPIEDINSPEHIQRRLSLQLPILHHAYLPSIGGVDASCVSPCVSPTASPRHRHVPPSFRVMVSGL
T2 sequence (P11275 whole entry): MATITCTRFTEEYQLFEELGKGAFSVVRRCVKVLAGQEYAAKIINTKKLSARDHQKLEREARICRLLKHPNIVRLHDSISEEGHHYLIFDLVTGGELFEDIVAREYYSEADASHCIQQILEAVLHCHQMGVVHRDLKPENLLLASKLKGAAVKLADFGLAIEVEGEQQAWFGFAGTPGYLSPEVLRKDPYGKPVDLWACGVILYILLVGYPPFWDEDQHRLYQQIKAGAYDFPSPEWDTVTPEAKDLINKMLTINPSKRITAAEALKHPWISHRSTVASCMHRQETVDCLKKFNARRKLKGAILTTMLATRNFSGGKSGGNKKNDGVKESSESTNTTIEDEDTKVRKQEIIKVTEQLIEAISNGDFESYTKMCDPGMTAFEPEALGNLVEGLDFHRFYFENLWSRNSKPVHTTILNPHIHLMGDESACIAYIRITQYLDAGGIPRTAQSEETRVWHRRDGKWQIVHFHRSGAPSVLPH

SMILES: O=C(O)Cc1cn2nc(-c3ccc(Cl)cc3)ccc2n1 [JON-11, 2-(6-(4-Chlorophenyl)imidazo[1,2-b]pyridazin-2-yl)acetic acid]
- agonistic activity at recombinant GABAB receptors (GABAB(1b,2) receptors): not a GABAB agonist; also recorded: Lack of agonistic activity
- locomotor activity (mice): does not affect locomotor activity
- Kp at 30 min (in vivo): 0.05
- affinity for GABAA receptors (GABAA receptors): weak affinity
- Ki [1]: 220 nM
